The text below walks through data of ChEMBL document CHEMBL5338749, “Rapid Elaboration of Fragments into Leads Applied to Bromodomain-3 Extra-Terminal Domain” (J Med Chem, 2023).

The target in assay [1] is T1, Bromodomain-containing protein 3 (Homo sapiens, UniProt Q15059). As to the kind of experiment: Binding affinity to biotinylated BRD3-ET domain (unknown origin) expressed in Escherichia coli Rosetta (DE3) pLysS assessed as dissociation off-rate constant at 4 degreeC by SPR analysis. A general note: SPR reads the build-up and loss of mass on a sensor chip optically.
Target sequence in this assay (Q15059 2-726 limits assumed): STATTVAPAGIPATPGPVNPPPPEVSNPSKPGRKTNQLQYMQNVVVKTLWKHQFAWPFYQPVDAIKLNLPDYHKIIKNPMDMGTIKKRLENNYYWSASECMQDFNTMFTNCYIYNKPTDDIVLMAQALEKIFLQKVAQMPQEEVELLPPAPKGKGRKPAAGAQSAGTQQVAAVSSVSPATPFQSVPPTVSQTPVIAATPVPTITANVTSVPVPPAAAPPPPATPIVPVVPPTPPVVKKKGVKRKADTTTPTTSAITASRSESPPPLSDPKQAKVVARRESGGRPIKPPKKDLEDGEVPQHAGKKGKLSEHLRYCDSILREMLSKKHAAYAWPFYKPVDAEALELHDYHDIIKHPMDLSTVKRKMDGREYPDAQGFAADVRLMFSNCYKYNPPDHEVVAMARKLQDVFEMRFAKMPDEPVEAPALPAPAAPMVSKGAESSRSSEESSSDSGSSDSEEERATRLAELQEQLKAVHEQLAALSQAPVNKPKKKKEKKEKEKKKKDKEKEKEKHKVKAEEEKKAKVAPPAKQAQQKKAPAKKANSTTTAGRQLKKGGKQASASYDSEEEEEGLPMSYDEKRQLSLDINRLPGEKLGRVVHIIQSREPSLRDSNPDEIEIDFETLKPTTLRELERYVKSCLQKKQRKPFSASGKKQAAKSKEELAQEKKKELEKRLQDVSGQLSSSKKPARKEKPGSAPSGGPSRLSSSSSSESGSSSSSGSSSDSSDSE
The target of assay [2] is T1, Bromodomain-containing protein 3. Description: Binding affinity to recombinant BRD3-ET domain (unknown origin) expressed in Escherichia coli Rosetta (DE3) pLysS assessed as dissociation constant by 19F- NMR analysis.
Target sequence in this assay (Q15059 whole entry, the tested form may be a part): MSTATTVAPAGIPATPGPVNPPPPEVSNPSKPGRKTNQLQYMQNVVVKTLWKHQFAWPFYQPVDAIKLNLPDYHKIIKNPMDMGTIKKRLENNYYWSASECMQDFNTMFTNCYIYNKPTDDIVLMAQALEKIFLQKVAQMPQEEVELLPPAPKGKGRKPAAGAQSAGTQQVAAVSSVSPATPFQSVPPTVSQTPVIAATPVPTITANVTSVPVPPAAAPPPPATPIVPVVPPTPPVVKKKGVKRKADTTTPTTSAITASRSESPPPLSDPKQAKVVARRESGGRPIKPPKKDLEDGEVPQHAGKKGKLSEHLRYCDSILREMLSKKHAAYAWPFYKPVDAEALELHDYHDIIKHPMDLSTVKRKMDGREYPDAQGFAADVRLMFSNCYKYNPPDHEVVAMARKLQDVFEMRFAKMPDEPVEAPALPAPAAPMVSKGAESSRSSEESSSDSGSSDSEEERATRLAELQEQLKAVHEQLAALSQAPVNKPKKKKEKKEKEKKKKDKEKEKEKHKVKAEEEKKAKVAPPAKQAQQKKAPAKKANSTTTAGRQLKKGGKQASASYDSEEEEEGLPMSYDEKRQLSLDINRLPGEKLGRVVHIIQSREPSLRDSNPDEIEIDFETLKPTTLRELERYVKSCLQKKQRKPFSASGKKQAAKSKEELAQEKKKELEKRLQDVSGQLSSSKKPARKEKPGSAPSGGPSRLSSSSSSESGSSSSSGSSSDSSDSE
The target is the same in assay [3]. As to the kind of experiment: Binding affinity to recombinant BRD3-ET domain (unknown origin) expressed in Escherichia coli Rosetta (DE3) pLysS assessed as dissociation constant by 1H- NMR analysis.
Target sequence in this assay (Q15059 whole entry, the tested form may be a part): as above
Assay [4] has the same target. Description: Binding affinity to biotinylated BRD3-ET domain (unknown origin) expressed in Escherichia coli Rosetta (DE3) pLysS assessed as dissociation constant at 4 degreeC by SPR analysis.
Target sequence in this assay (Q15059 whole entry, the tested form may be a part): as above
The target is the same in assay [5]. Description: Binding affinity to 15N-labeled recombinant BRD3-ET domain (unknown origin) expressed in Escherichia coli Rosetta (DE3) pLysS assessed as dissociation constant by […] HSQC NMR analysis.
Target sequence in this assay (Q15059 whole entry, the tested form may be a part): as above

Structures are written as SMILES. Several values for one entry are separate records, joined by “and”; a condition that tells them apart may be missing. Equal entries are not always repeated.

Take `CC(C)C[C@H](N)CC(=O)NC1CCCc2c1[nH]c1ccc(F)cc21` (stereo not given in full) [listing 1 of 3 here]: the K in assay [1] was 0.26 s⁻¹ and 0.27 s⁻¹. In general, Kd refers to a measure of binding affinity in units of concentration. For `Fc1ccc2[nH]c3c(c2c1)CCCC3NCC1CCNC1` (stereo not given) [listing 1 of 3 here], the Kd in assay [2] is 68 µM; in assay [3] it was 93 µM. With `Fc1ccc2[nH]c3c(c2c1)CCCC3NCC1CCNCC1` (stereo not given) [listing 1 of 3 here], the Kd in assay [4] came out at 17 µM. With `Fc1ccc2[nH]c3c(c2c1)CCCC3NCCC1CCCNC1` (stereo not given) [listing 1 of 3 here], in assay [4], the Kd is 7.8 µM. Take `Fc1ccc2[nH]c3c(c2c1)CCCC3NCC1CCNCC1` (stereo not given) [listing 2 of 3 here]: the results for the Kd in assay [2] and in assay [3] were 22 µM and 61 µM, respectively.

Take `O=C(NC1CCCc2c1[nH]c1ccc(F)cc21)[C@@H]1C=CCN1` (stereo not given in full) [listing 1 of 3 here]: in assay [1], the K is 0.13 s⁻¹ and 0.22 s⁻¹. In the case of `OC1CCCc2c1[nH]c1ccccc21` (stereo not given), the Kd in assay [5] came out at 230 µM; in assay [4], 380 µM. Consider `O=C(CC1CCCNC1)NC1CCCc2c1[nH]c1ccc(F)cc21` (stereo not given), for which the results for the Kd in assay [4] and in assay [3] were 25 µM and 33 µM, respectively. `CC(=O)NC1CCCc2c1[nH]c1ccc(F)cc21` (stereo not given): the Kd amounted to 150 µM in assay [5] and 260 µM in assay [4]. Consider `CC(C)C[C@H](N)CC(=O)NC1CCCc2c1[nH]c1ccc(F)cc21` (stereo not given in full) [listing 2 of 3 here], for which the dissociation constant Kd in assay [3] came to 39 µM. Turning to `O=C(NC1CCCc2c1[nH]c1ccc(F)cc21)[C@@H]1C=CCN1` (stereo not given in full) [listing 2 of 3 here], the Kd in assay [4] was 47 µM. Regarding `Fc1ccc2[nH]c3c(c2c1)CCCC3NCC1CCNCC1` (stereo not given) [listing 3 of 3 here], in assay [1], the K was 0.3 s⁻¹ and 0.49 s⁻¹. Still for that read-out and setting: to `Fc1ccc2[nH]c3c(c2c1)CCCC3NCC1CCNC1` (stereo not given) [listing 2 of 3 here] belongs 0.22 s⁻¹ and 0.33 s⁻¹. Regarding `Fc1ccc2[nH]c3c(c2c1)CCCC3NCCC1CCCNC1` (stereo not given) [listing 2 of 3 here], the K in assay [1] amounted to 0.28 s⁻¹. As for `Fc1ccc2[nH]c3c(c2c1)CCCC3NCC1CCNC1` (stereo not given) [listing 3 of 3 here], the Kd in assay [4] was determined as 11 µM. On to `CC(C)(C)OC(=O)N1CCC(CNC2CCCc3c2[nH]c2ccc(F)cc32)C1` (stereo not given), for which the Kd was determined as 30 µM in assay [5] and 93 µM in assay [4].

For `Fc1ccc2[nH]c3c(c2c1)CCCC3NCCC1CCCNC1` (stereo not given) [listing 3 of 3 here], the Kd in assay [2] is 18 µM; in assay [3], 24 µM. In the case of `O=C(NC1CCCc2c1[nH]c1ccc(F)cc21)[C@@H]1C=CCN1` (stereo not given in full) [listing 3 of 3 here], the Kd in assay [5] amounted to 64 µM.

Consider `CC(C)(C)OC(=O)N1CCC(CNC2CCCc3c2[nH]c2ccc(F)cc32)CC1` (stereo not given), for which the values for the Kd in assay [5] and in assay [4] were 31 µM and 86 µM, respectively. On to `CC(C)C[C@H](N)CC(=O)NC1CCCc2c1[nH]c1ccc(F)cc21` (stereo not given in full) [listing 3 of 3 here], for which, in assay [4], the dissociation constant Kd was determined as 11 µM. `O=C(NC1CCCc2c1[nH]c1ccc(F)cc21)C1CCNC1` (stereo not given): the figures for the Kd in assay [4] and in assay [3] were 31 µM and 54 µM, respectively.
